These results are taken from patent US20230346773A1, “USE OF PCSK9 INHIBITOR IN PREPARATION OF PRODUCT FOR TREATING MULTIPLE DISEASES” (priority 2020, published 2023).

Marks after values point to notes of the source that are not given here.

In assay [1] the test system is androgenetic alopecia (SA) rat model. Kind of assay: Androgenetic alopecia (SA) rat model induced by testosterone propionate. As to conditions: for Skin hair follicles and sebaceous glands: number of rats graded ++ / Skin hair follicles and sebaceous glands: number of rats graded ± / Skin hair follicles and sebaceous glands: number of rats graded + / Skin hair follicles and sebaceous glands: number of rats graded − / Skin hair follicles and sebaceous glands: number of rats graded +++: 10 rats, after 60 days; for Skin hair follicles and sebaceous glands: number of rats graded ++: few follicles with cystic degeneration, sebaceous glands mild hyperplasia and hypertrophy; for Skin hair follicles and sebaceous glands: number of rats graded ±: no hyperplasia in the dermis, limited lesions of hair follicles and sebaceous glands, no subcutaneous inflammation; for Skin hair follicles and sebaceous glands: number of rats graded +: no obvious hyperplasia in dermis, obviously cystic follicles, no inflammation; for Skin hair follicles and sebaceous glands: number of rats graded −: normal skin dermal tissue cells, subcutaneous hair follicles and sebaceous glands; for Skin hair follicles and sebaceous glands: number of rats graded +++: segmental hyperplasia, degenerated follicles, hyperplasia of sebaceous glands, mild inflammatory hyperplasia; for 15 d hair length / 30 d hair length / 45 d hair length / 60 d hair length: rats; for 15 d hair length: 15 days after administration; for 30 d hair length: 30 days after administration; for 45 d hair length: 45 days after administration; for 60 d hair length: 60 days after administration. The class given is in vivo, Wistar rats. As to the method:
SPF grade Wistar rats were selected and randomly divided into compound group 1 (skin applied with 5% R-IMPP solution), compound group 2 (skin applied with 5% PF 06446846 solution), and compound group 3 (skin applied with 5% SBC-115076 solution), compound group 4 (skin applied with 5% SBC-110736 solution), monoclonal antibody group 1 (subcutaneous injection of PCSK9 monoclonal antibody ab84041, 5 mg/kg·d), monoclonal antibody group 2 (subcutaneous injection of Evolocumab, 5 mg/kg·d), monoclonal antibody group 3 (subcutaneous injection of Alirocumab, 5 mg/kg·d), PCSK9 RNAi inhibitor group-1 (skin applied with 5% PCSK9 small interfering RNA-1 solution), PCSK9 RNAi inhibitor group-2 (skin applied with 5% PCSK9 small interfering RNA-2 solution), PCSK9 RNAi inhibitor group-3 (skin applied with 5% PCSK9 small interfering RNA-3 solution), and polypeptide group (subcutaneous injection of Abcam company ab32727, 3 mg/kg·d), positive control group (skin smeared with 5% minoxidil tincture), negative control group (smeared with 75% ethanol), model control group (smeared with 75% ethanol), 10 rats in each group, half male and half female.
Before the experiment, each rat selected an area of 4 cm×5 cm on the back to remove the hair as the observation area. Except for the negative control group, the rats were subcutaneously injected with testosterone propionate injection [[…]] at the back of the neck, once a day for 60 consecutive days to establish the SA model. […] At the same time, the rats in the corresponding drug group were smeared or subcutaneously injected on the skin of the observation area of the rats in the drug group, smeared 1 ml/(per time), twice a day, with an interval of 8 hours, and administered by subcutaneous injection, once a day. The negative control group and the model control group were smeared with excipient (75% ethanol solution), 1 mL one rat per time, twice a day, for 60 consecutive days.
10 hairs were extracted from the observation area on the back of each rat every 15 days after administration, and the hair length was measured with a vernier caliper. After 60 days of administration, the skin of the experimental observation area was taken for routine tissue dehydration, paraffin embedding, HE staining, and light microscopy to observe the histopathological changes of the rat skin hair follicles and sebaceous glands. Semi-quantitative analysis was carried out in each group. The grading standards are as follows: normal skin dermal tissue cells, subcutaneous hair follicles, and sebaceous glands were marked as “one”; no hyperplasia in the dermis, limited lesions of hair follicles and sebaceous glands, and no subcutaneous inflammation, marked as “±”; no obvious hyperplasia found in the dermis, obviously cystic follicles, no obvious hyperplasia found in the sebaceous glands, and no inflammation is recorded as “+”; segmental hyperplasia of skin and dermis was not obvious, a small number of hair follicles had cystic degeneration, and sebaceous glands had mild hyperplasia and hypertrophy. No obvious inflammation under the skin was recorded as “++”; the skin and dermis tissue cells had segmental hyperplasia of different degrees, some follicles degenerated, the size of the hair follicles was uneven, and there were no cells in the periphery. There was hyperplasia of sebaceous glands, and there were few nuclei in the hyperplasia glands. Individual rats had mild inflammatory hyperplasia under the skin, which was marked as “+++”.

Assay [2] concerns hair follicles / hair growth in depilated C57BL/6 mice. Kind of assay: Hair growth in C57BL/6 mice after rosin/paraffin depilation. The class given is in vivo. The note with it: for Time from hair growth to the same length as the hair in the non-experimental area / Time to grow new hair / Time to match the length of hair in the non-experimental area: back hair removal area of mice; for Black skin duration / Skin black-turning time / Skin grayish-black-turning time: hair removal area on the back of mice; for Skin black-turning time / Skin grayish-black-turning time: after hair removal. As to the method:
SPF grade C57BL/6 mice were selected and numbered according to their weight. They were randomly divided into compound group 1 (skin applied with 2% R-IMPP solution), compound group 2 (skin applied with 2% PF 06446846 solution), and compound group 3 (skin applied with 2% SBC-115076 solution), compound group 4 (skin applied with 2% SBC-110736 solution), monoclonal antibody group 1 (PCSK9subcutaneous injection monoclonal antibody ab81041, 5 mg/kg·d), monoclonal antibody group 2 (Subcutaneous injection of Evolocumab, 5 mg/kg·d), monoclonal antibody group 3 (subcutaneous injection of Alirocumab, 5 mg/kg·d), PCSK9 RNA interference group-1 (skin applied with 2% PCSK9 small interfering RNA-1 solution), PCSK9 RNA interference Group-2 (skin applied with 2% PCSK9 small interfering RNA-2 solution), PCSK9 RNA interference group-3 (skin applied with 2% PCSK9 small interfering RNA-3 solution), polypeptide group (subcutaneous injection of Abcam company ab32727, 3 mg/kg·d), positive control group (skin applied with 2% minoxidil solution), negative control group (skin applied with 60% ethanol), and model control group (skin applied with 60% ethanol), 10 mice in each group, half male and half female. After the mice were anesthetized with ether, they were coated on the back with a mixture of rosin and paraffin (1:1) after hot melting, and then peeled off after it solidified and hardened. The back of the mouse was cleaned to be hairless and without injuries. The depilation area was about 3 cm×4 cm. From the 2nd day after depilation, the corresponding drugs were applied to the hair removal area, twice a day, 0.5 mL per animal each time, and subcutaneously injected once a week.
From the second day after application, observe the daily color change of the skin on the back of the mice to determine the growth state of the hair follicles and visually observe the hair growth in the depilation area, and score the new hair growth in the depilation area once a day. Five mice in each group were reserved for 40 days of visual observation, and the growth of back hair was recorded.
On the 17th day, five mice in each group were sacrificed by cervical dislocation. The samples were taken from the same part of the back parallel to the spine, fixed with 10% formaldehyde, dehydrated, embedded in paraffin, sectioned, stained with HE, and sealed with neutral gum. Then the histology of hair follicles was observed under light microscope, and morphological staging of hair follicles was performed. According to the international hair cycle scoring method, the hair follicles were scored as follows: 100 points for growth stage VI, 200 points for early regression, 300 points for middle regression, and 400 points for late regression. 50 hair follicles were randomly selected from each mouse, the cycle of the hair follicles in each group was determined, and the average hair cycle score and the percentage of hair follicles in the growth phase VI, early regression, middle regression, and late regression were calculated.

Regarding `COc1ccc(CCC(=O)N(c2nccc3ccccc23)[C@@H]2CCCNC2)cc1` [Compound group 1, R-IMPP], in assay [1], the “Skin hair follicles and sebaceous glands: number of rats graded ++” value amounted to 3; the “Skin hair follicles and sebaceous glands: number of rats graded ±” value was determined as 5; the “Skin hair follicles and sebaceous glands: number of rats graded +” value is given as 2; the “Skin hair follicles and sebaceous glands: number of rats graded −” value came to 0. In assay [1], the “Skin hair follicles and sebaceous glands: number of rats graded +++” value came to 0; the “15 d hair length” value is listed as 8.9* mm; the “30 d hair length” value is on record as 9.9* mm; the “45 d hair length” value is reported as 14.7* mm. Also, the “60 d hair length” value in assay [1] is on record as 18.2* mm. Moreover, in assay [2], the “Time from hair growth to the same length as the hair in the non-experimental area” value (shortened to “Time … as the hair in the non-experimental area”) is given as 11.14* days, the “Time to grow new hair” value was 6.92* days, the “Time to match the length of hair in the non-experimental area” value was 18.06* days and the Black skin duration is given as 14.29* days. Besides, in assay [2], the Skin black-turning time is listed as 5.96* days and the Skin grayish-black-turning time is 20.25* days.

Turning to `O=C(c1ccc(-n2nnc3cccnc32)cc1)N(c1ncccc1Cl)[C@@H]1CCCNC1` [Compound group 2, PF 06446846], in assay [1], the “Skin hair follicles and sebaceous glands: number of rats graded ++” value was determined as 1; the “Skin hair follicles and sebaceous glands: number of rats graded ±” value is reported as 5; the “Skin hair follicles and sebaceous glands: number of rats graded +” value is reported as 2; the “Skin hair follicles and sebaceous glands: number of rats graded −” value is 2. In assay [1], the “Skin hair follicles and sebaceous glands: number of rats graded +++” value was 0; the “15 d hair length” value is reported as 9.2* mm; the “30 d hair length” value was 10.1* mm; the “45 d hair length” value is 15.2* mm. Further, in assay [1], the “60 d hair length” value is on record as 18.9* mm. Also, in assay [2], the “Time … as the hair in the non-experimental area” value was 10.46* days, the “Time to grow new hair” value is 6.33* days, the “Time to match the length of hair in the non-experimental area” value is 17.69* days and the Black skin duration is recorded as 10.86* days. Besides, in assay [2], the Skin black-turning time is 5.45* days and the Skin grayish-black-turning time is 17.32* days.

In the case of `Cc1cc(C(=O)C2=C(O)C(=O)N(CCCN3CCOCC3)C2c2ccncc2)ccc1OCc1ccccc1` (stereo not drawn) [Compound group 3, SBC-115076], in assay [1], the “Skin hair follicles and sebaceous glands: number of rats graded ++” value was determined as 3; the “Skin hair follicles and sebaceous glands: number of rats graded ±” value is on record as 4; the “Skin hair follicles and sebaceous glands: number of rats graded +” value was found to be 2; the “Skin hair follicles and sebaceous glands: number of rats graded −” value is reported as 1. In assay [1], the “Skin hair follicles and sebaceous glands: number of rats graded +++” value is on record as 0; the “15 d hair length” value is reported as 8.3* mm; the “30 d hair length” value is given as 8.8* mm; the “45 d hair length” value is reported as 14.5* mm. For the same molecule, the “60 d hair length” value in assay [1] was 17.6* mm. Further, in assay [2], the “Time … as the hair in the non-experimental area” value is 11.52* days, the “Time to grow new hair” value was 6.95* days, the “Time to match the length of hair in the non-experimental area” value is 19.35* days and the Black skin duration was 11.65* days. Moreover, in assay [2], the Skin black-turning time is 5.63* days and the Skin grayish-black-turning time is given as 18.12* days.

Take `CC(=O)Nc1ccc(C(=O)N2CCN(c3ccc(C)cc3)CC2c2ccccc2)cc1` (stereo not drawn) [Compound group 4, SBC-110736]: in assay [1], the “Skin hair follicles and sebaceous glands: number of rats graded ++” value was found to be 2; the “Skin hair follicles and sebaceous glands: number of rats graded ±” value is given as 4; the “Skin hair follicles and sebaceous glands: number of rats graded +” value is recorded as 3; the “Skin hair follicles and sebaceous glands: number of rats graded −” value came to 1. In assay [1], the “Skin hair follicles and sebaceous glands: number of rats graded +++” value is given as 0; the “15 d hair length” value is 8.1* mm; the “30 d hair length” value is listed as 8.6* mm; the “45 d hair length” value is reported as 14.3* mm. The “60 d hair length” value in assay [1] is recorded as 17.3* mm. Also, in assay [2], the “Time … as the hair in the non-experimental area” value is given as 11.87* days, the “Time to grow new hair” value is on record as 6.98* days, the “Time to match the length of hair in the non-experimental area” value was 18.46* days and the Black skin duration is recorded as 12.32* days. In assay [2], the Skin black-turning time is recorded as 5.78* days and the Skin grayish-black-turning time is reported as 18.46* days.

As to ALN-PCS [RNA interference group 3], in assay [1], the “Skin hair follicles and sebaceous glands: number of rats graded ++” value was found to be 2; the “Skin hair follicles and sebaceous glands: number of rats graded ±” value was found to be 3; the “Skin hair follicles and sebaceous glands: number of rats graded +” value is listed as 4; the “Skin hair follicles and sebaceous glands: number of rats graded −” value stood at 1. In assay [1], the “Skin hair follicles and sebaceous glands: number of rats graded +++” value is 0; the “15 d hair length” value was 8.2* mm; the “30 d hair length” value is recorded as 8.9* mm; the “45 d hair length” value is listed as 14.2* mm. In addition, the “60 d hair length” value in assay [1] is 16.7* mm. Also, in assay [2], the “Time … as the hair in the non-experimental area” value is given as 14.26* days, the “Time to grow new hair” value is 6.96* days, the “Time to match the length of hair in the non-experimental area” value was 21.38* days and the Black skin duration is listed as 12.16* days. For the same molecule, in assay [2], the Skin black-turning time was 6.08* days and the Skin grayish-black-turning time was 18.52* days.

For “Alirocumab [Monoclonal antibody group 3]”, in assay [1], the “Skin hair follicles and sebaceous glands: number of rats graded ++” value is on record as 1; the “Skin hair follicles and sebaceous glands: number of rats graded ±” value turned out to be 4; the “Skin hair follicles and sebaceous glands: number of rats graded +” value amounted to 2; the “Skin hair follicles and sebaceous glands: number of rats graded −” value was 3. In addition, in assay [1], the “Skin hair follicles and sebaceous glands: number of rats graded +++” value is 0; the “15 d hair length” value is recorded as 9.5* mm; the “30 d hair length” value is listed as 10.5* mm; the “45 d hair length” value is 15.5* mm. In addition, in assay [1], the “60 d hair length” value is recorded as 19.2* mm. In assay [2], the “Time … as the hair in the non-experimental area” value was 10.13* days, the “Time to grow new hair” value is given as 6.06* days, the “Time to match the length of hair in the non-experimental area” value was 16.75* days and the Black skin duration is recorded as 13.43* days. Besides, in assay [2], the Skin black-turning time was 5.35* days and the Skin grayish-black-turning time is recorded as 16.65* days.
